Measurements: article PMC7407272, “Induction of Lysosome Membrane Permeabilization as a Therapeutic Strategy to Target Pancreatic Cancer Stem Cells” (Cancers, 2020)

Experiments:
[1] = test system: PDAC1 adherent 2D monolayers; assay: Viability curves on PDAC1 adherent 2D monolayers; type: cell-based; details: Homo sapiens, 30 h
Excerpt: The PDAC patient-derived xenograft (PDX) Panc354 (referred to hereafter as PDAC3) was obtained from Dr. Manuel Hidalgo under a Material Transfer Agreement with the Spanish National Cancer Centre (CNIO), Madrid, Spain (Reference no. I409181220BSMH). PDAC1, PDAC2 and PDAC4 PDXs were established from primary patient resected tumors. Samples were provided by the BioBank Hospital Ramón y Cajal-IRYCIS (PT13/0010/0002), integrated in the Spanish National Biobanks Network and they were processed following standard operating procedures with the appropriate approval of the Ethical and Scientific Committees (Control no. No. Control: DE-BIOB-73 AC65, RG.BIOB-96 REV, and CI-BIOB-08-10-01 rev), with informed consent and according to Declaration of Helsinki principles. Primary patient tumors were subcutaneously implanted in immunocompromised female 6- to 8-week-old NU-Foxn1nu nude mice (Envigo, Barcelona, Spain) and subsequently passage in vivo to establish PDX PDAC1, PDAC2 and PDAC4. Primary PDX-derived in vitro cultures were established as previously detailed. […]
Murine embryonic stem cells (mESCs) were plated at 20,000 cells per well in gelatinized 96 well plates. […] Trypsinized cells were counted and 20,000 cells were plated in wells of standard tissue culture-treated plates (Corning) and treated the following day with indicated compounds and concentrations.

re-plated PDAC2 spheres = assay: Acridine orange lysosomal integrity assay; type: cell-based, human
Protocol: Cells were analyzed with a 4-laser Attune NxT Acoustic Cytometer (ThermoFisher Scientific). […] Autofluorescent cells were excited with blue laser 488nm and selected as the intersection with the filters 530/40 and 580/30 as previously described. For lysosomes quantification, Acridine Orange (AO) (A1301, Thermo Fisher Scientific, Waltham, MA, USA) or Lysotracker Deep Red (DR) (L12492, Molecular probes, Life Technologies, Waltham, MA, USA) were used. […] Bafilomycin A1 (100 nM, Calbiochem, San Diego, CA, USA) was included as a positive control for lysosome disruption. For Annexin V staining, floating and attached cells were pooled and resuspended in 1× AnnexinV staining buffer containing AnnexinV-APC diluted 1:20 (Biotium, Freemont, CA, USA) and incubated for 20 min at room temperature prior to flow cytometric analysis. For all assays, DAPI was used to mark and exclude dead cells, and data were analyzed using the software FlowJo v9.3 (Tree Star Inc., Ashland, OR, USA).
Re-plated spheres were loaded with 1 µg/mL acridine orange (A1301, Thermo Fisher Scientific) for 15 min then washed 3 times with PBS. […]

ABL1(F317I)-P = target: T1, ABL1(F317I)-P (Homo sapiens, UniProt P00519, F317I); assay: KINOMEscan; type: binding; details: read-out: % Ctrl
T1 construct: purchased DiscoveRx KINOMEscan
T1 sequence (P00519 whole entry F317I): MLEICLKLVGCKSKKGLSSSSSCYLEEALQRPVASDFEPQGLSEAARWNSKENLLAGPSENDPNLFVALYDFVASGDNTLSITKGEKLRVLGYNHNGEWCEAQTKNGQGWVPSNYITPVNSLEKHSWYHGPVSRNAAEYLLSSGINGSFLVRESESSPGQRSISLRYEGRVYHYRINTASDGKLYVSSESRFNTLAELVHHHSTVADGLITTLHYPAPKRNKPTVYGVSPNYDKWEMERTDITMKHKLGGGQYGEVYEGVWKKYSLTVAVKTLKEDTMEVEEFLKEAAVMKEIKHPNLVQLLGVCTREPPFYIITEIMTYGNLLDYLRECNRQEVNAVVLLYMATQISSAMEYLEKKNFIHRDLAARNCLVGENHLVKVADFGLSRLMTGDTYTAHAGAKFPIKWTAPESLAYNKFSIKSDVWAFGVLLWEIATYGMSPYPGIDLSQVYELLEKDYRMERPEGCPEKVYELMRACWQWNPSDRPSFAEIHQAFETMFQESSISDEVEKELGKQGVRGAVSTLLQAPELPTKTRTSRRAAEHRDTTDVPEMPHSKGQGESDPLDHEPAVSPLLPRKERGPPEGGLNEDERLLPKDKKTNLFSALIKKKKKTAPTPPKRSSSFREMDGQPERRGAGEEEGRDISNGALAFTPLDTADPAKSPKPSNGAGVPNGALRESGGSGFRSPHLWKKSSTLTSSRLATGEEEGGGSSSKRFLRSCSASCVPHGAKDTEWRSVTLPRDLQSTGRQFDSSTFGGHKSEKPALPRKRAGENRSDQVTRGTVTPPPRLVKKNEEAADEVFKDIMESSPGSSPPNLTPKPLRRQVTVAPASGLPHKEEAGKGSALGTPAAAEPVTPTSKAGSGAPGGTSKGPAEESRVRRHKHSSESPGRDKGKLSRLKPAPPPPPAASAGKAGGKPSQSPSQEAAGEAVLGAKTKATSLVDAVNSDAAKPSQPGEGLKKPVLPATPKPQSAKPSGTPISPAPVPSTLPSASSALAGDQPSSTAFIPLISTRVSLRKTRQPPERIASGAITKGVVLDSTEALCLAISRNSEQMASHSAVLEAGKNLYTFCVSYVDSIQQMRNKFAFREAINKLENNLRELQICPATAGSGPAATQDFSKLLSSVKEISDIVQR

PFCDPK1(P.falciparum) = target: T2, PFCDPK1(P.falciparum) (Plasmodium falciparum, UniProt P62344); assay: KINOMEscan; type: binding; details: read-out: % Ctrl
T2 construct: purchased DiscoveRx KINOMEscan

ADCK4 = target: T3, ADCK4 (Homo sapiens, UniProt Q96D53); assay: KINOMEscan; type: binding; details: read-out: % Ctrl
T3 construct: purchased DiscoveRx KINOMEscan

AURKA = target: T4, AURKA (Homo sapiens, UniProt O14965); assay: KINOMEscan; type: binding; details: read-out: % Ctrl
T4 construct: purchased DiscoveRx KINOMEscan
T4 sequence (O14965 whole entry): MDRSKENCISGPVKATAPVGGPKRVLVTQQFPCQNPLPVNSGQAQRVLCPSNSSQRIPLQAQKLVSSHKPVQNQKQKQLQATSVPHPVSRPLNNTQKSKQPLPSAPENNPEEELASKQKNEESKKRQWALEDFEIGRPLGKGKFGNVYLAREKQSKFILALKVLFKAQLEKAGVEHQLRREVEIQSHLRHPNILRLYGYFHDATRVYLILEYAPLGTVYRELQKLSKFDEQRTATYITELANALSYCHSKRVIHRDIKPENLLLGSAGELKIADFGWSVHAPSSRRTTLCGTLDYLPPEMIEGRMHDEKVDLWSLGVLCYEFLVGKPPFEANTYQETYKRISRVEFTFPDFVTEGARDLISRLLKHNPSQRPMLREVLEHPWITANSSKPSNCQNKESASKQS

PKN1 = target: T5, PKN1 (Homo sapiens, UniProt Q16512); assay: KINOMEscan; type: binding; details: read-out: % Ctrl
T5 construct: purchased DiscoveRx KINOMEscan

CAMK1 = target: T6, CAMK1 (Homo sapiens, UniProt Q14012); assay: KINOMEscan; type: binding; details: read-out: % Ctrl
T6 construct: purchased DiscoveRx KINOMEscan
T6 sequence (Q14012 whole entry): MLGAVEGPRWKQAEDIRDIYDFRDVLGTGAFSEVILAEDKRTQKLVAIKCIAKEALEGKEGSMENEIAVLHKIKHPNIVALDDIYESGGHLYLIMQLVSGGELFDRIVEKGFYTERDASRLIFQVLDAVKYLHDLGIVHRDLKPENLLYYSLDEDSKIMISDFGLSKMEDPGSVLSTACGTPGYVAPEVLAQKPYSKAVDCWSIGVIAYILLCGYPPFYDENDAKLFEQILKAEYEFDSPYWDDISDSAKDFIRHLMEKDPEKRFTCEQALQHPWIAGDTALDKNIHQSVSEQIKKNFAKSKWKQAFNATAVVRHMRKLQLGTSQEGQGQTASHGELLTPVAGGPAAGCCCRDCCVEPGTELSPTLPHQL

JAK3(JH1D.-cat.) = target: T7, JAK3(JH1D.-cat.) (Homo sapiens, UniProt P52333); assay: KINOMEscan; type: binding; details: read-out: % Ctrl
T7 construct: JAK3(JH1D.-cat.); purchased DiscoveRx KINOMEscan
T7 sequence (P52333 822-1124 limits assumed): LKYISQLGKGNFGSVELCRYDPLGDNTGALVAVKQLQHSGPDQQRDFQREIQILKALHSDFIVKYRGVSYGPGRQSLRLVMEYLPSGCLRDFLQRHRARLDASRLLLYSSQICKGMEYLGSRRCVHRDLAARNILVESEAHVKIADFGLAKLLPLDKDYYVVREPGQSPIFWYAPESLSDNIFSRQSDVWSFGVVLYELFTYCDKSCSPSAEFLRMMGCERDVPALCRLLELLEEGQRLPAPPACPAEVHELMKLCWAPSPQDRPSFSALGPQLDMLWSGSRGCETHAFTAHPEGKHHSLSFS

KIT-autoi. = target: T8, KIT-autoi. (Homo sapiens, UniProt P10721); assay: KINOMEscan; type: binding; details: read-out: % Ctrl
T8 construct: purchased DiscoveRx KINOMEscan

CDKL2 = target: T9, CDKL2 (Homo sapiens, UniProt Q92772); assay: KINOMEscan; type: binding; details: read-out: % Ctrl
T9 construct: purchased DiscoveRx KINOMEscan

CIT = target: T10, CIT (Homo sapiens, UniProt O14578); assay: KINOMEscan; type: binding; details: read-out: % Ctrl
T10 construct: purchased DiscoveRx KINOMEscan

CSNK1A1L = target: T11, CSNK1A1L (Homo sapiens, UniProt Q8N752); assay: KINOMEscan; type: binding; details: read-out: % Ctrl
T11 construct: purchased DiscoveRx KINOMEscan
T11 sequence (Q8N752 whole entry): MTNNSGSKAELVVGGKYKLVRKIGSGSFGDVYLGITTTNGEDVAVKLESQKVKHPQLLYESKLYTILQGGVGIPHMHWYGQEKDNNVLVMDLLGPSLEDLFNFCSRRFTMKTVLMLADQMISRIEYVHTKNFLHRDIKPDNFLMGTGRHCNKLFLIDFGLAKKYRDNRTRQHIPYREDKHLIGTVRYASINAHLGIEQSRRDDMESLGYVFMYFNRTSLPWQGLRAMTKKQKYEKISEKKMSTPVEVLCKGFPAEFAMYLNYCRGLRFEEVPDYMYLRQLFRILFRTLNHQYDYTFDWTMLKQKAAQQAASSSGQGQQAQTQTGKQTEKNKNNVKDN

SRPK1 = target: T12, SRPK1 (Homo sapiens, UniProt Q96SB4); assay: KINOMEscan; type: binding; details: read-out: % Ctrl
T12 construct: purchased DiscoveRx KINOMEscan

DDR1 = target: T13, DDR1 (Homo sapiens, UniProt Q08345); assay: KINOMEscan; type: binding; details: read-out: % Ctrl
T13 construct: purchased DiscoveRx KINOMEscan

TRKB = target: T14, TRKB (Homo sapiens, UniProt Q16620); assay: KINOMEscan; type: binding; details: read-out: % Ctrl
T14 construct: purchased DiscoveRx KINOMEscan
T14 sequence (Q16620 32-822): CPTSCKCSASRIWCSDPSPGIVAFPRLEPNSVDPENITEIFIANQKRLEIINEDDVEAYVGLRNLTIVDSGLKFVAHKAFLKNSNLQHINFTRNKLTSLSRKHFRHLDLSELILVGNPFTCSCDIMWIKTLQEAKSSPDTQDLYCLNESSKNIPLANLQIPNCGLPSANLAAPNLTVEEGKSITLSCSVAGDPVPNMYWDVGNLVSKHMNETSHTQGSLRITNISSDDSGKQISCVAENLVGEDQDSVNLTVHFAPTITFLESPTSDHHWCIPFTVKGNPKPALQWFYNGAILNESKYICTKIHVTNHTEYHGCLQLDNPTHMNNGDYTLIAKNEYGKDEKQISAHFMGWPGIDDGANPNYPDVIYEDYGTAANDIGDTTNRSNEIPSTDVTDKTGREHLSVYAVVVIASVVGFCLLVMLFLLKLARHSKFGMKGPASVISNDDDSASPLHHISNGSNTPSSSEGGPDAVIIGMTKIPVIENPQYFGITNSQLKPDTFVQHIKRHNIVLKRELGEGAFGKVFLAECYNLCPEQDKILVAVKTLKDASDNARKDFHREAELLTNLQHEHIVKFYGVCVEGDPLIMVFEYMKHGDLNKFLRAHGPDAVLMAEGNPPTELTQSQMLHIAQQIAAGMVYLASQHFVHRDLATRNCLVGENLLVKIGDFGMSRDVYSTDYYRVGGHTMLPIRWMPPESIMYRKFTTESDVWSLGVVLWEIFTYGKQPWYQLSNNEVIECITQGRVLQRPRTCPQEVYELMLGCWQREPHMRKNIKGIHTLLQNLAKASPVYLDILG

TTK = target: T15, TTK (Homo sapiens, UniProt P33981); assay: KINOMEscan; type: binding; details: read-out: % Ctrl
T15 construct: purchased DiscoveRx KINOMEscan
T15 sequence (P33981 whole entry): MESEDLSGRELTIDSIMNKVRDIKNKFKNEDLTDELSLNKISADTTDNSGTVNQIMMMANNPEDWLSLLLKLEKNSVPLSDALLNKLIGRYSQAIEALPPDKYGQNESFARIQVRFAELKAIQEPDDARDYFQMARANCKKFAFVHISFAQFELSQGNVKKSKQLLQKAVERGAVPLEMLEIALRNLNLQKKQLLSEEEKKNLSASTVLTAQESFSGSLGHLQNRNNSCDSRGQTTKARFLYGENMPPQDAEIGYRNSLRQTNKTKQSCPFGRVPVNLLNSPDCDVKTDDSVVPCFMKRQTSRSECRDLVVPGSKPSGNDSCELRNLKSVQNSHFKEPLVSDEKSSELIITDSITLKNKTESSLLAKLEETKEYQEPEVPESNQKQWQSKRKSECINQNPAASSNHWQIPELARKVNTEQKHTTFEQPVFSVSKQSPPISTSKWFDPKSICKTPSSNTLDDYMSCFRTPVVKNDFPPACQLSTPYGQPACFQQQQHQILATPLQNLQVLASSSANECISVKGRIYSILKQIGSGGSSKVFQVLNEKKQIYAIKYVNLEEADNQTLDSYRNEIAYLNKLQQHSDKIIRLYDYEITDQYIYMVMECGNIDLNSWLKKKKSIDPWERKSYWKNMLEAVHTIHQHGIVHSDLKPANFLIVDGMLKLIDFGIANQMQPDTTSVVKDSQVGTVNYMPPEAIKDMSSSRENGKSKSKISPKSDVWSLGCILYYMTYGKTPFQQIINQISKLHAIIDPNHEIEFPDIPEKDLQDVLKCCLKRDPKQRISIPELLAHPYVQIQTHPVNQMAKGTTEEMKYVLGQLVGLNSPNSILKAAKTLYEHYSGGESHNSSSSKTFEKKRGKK

YSK1 = target: T16, YSK1 (Homo sapiens, UniProt O00506); assay: KINOMEscan; type: binding; details: read-out: % Ctrl
T16 construct: purchased DiscoveRx KINOMEscan
T16 sequence (O00506 whole entry): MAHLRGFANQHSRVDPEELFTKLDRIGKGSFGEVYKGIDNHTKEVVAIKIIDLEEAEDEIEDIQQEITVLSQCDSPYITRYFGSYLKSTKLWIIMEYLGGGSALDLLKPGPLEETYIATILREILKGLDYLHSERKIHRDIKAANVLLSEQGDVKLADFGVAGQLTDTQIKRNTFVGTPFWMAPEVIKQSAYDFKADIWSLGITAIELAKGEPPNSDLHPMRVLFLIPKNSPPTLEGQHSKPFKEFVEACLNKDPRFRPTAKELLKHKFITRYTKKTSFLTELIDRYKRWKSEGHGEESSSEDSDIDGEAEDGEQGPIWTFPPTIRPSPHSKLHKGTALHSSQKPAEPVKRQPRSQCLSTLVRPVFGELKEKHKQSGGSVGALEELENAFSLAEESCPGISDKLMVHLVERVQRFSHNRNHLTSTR

Work on COc1nc2ccc(NCC3CCN(C)CC3)nn2c1C(=O)Nc1cccc(OC(F)(F)F)c1 [Cpd 1] yielded an EC50 [1] of roughly 3.56 µM.

With CN1CCC(CNc2ccc3ncc(C(=O)Nc4cccc(OC(F)(F)F)c4)n3n2)CC1 [Cpd 2] the “Acridine Orange staining (LMP), fluorescence microscopy” value (re-plated PDAC2 spheres; 5 µM, 2 h) was “greatly reduced lysosomal staining in the far-red channel”, the “AO mean far-red fluorescence intensity (MFI), flow cytometry” value (re-plated PDAC2 spheres; 1.25, 2.5 or 5 µM, 6 h and 24 h) was “decreasing overall AO mean far-red fluorescence intensity” and the remaining binding at 1 µM (ABL1(F317I)-P) was 94%. It also gave a remaining binding at 1 µM (PFCDPK1(P.falciparum)) of 88%, a remaining binding at 1 µM (ADCK4) of 99% and a remaining binding at 1 µM (AURKA) of 96%. For the same compound, the remaining binding at 1 µM (PKN1) was 100%, the remaining binding at 1 µM (CAMK1) was 98% and the remaining binding at 1 µM (JAK3(JH1D.-cat.)) was 100%. For the same compound, the remaining binding at 1 µM (KIT-autoi.) was 100%, the remaining binding at 1 µM (CDKL2) was 98% and the remaining binding at 1 µM (CIT) was 60%. It also gave a remaining binding at 1 µM (CSNK1A1L) of 95%, a remaining binding at 1 µM (SRPK1) of 95% and a remaining binding at 1 µM (DDR1) of 92%. For the same compound, the remaining binding at 1 µM (TRKB) was 89%, the remaining binding at 1 µM (TTK) was 63% and the remaining binding at 1 µM (YSK1) was 95%.
